Reference: US9115081B2, “Synthetic process for aminocyclohexyl ether compounds” (Cardiome Pharma Corp., priority 2004, dated 2015)

System: sustained AF maintained during continuous vagal nerve stimulation
Assay: Canine vagal-AF model: termination of sustained AF by drug infused IV
Assay type: in vivo, dog
Details: for Effective doses for terminating AF: anesthetized mongrel dogs, IV over 5 min, cell format number of dogs-dose
Description: Mongrel dogs of either sex weighing 15-49 kg are anesthetized with morphine (2 mg/kg im initially, followed by 0.5 mg/kg IV every 2 h) and α-chloralose (120 mg/kg IV followed by an infusion of 29.25 mg/kg/h; St.-Georges et al., 1997). Dogs are ventilated mechanically with room air supplemented with oxygen via an endotracheal tube at 20 to 25 breaths/minute with a tidal volume obtained from a nomogram. Arterial blood gases are measured and kept in the physiological range (SAO2>90%, pH 7.30-7.45). Catheters are inserted into the femoral artery for blood pressure recording and blood gas measurement, and into both femoral veins for drug administration and venous sampling. Catheters are kept patent with heparinized 0.9% saline solution. Body temperature is maintained at 37-40° C. with a heating blanket.
The heart is exposed via a medial thoracotomy and a pericardial cradle is created. Three bipolar stainless steel, Teflon™-coated electrodes are inserted into the right atria for recording and stimulation, and one is inserted into the left atrial appendage for recording. A programmable stimulator (Digital Cardiovascular Instruments, Berkeley, Calif.) is used to stimulate the right atrium with 2 ms, twice diastolic threshold pulses. Two stainless steel, Teflon™-coated electrodes are inserted into the left ventricle, one for recording and the other for stimulation. […]
Drug effects to terminate sustained AF maintained during continuous vagal nerve stimulation are assessed. […] The vagal stimulation voltage is adjusted under control conditions, and then readjusted after each treatment to maintain the same bradycardic effect. […]
Diastolic threshold current is determined at a basic cycle length of 300 ms by increasing the current 0.1 mA incrementally until stable capture is obtained. […] Atrial and ventricular ERP is measured with the extrastimulus method, over a range of S1S2 intervals at a basic cycle length of 300 ms. […] Diastolic threshold and ERP are determined in duplicate and averaged to give a single value. […]

SMILES: O=C(NCC1CCCCN1)c1cc(OCC(F)(F)F)ccc1OCC(F)(F)F (stereo not drawn) [Flecainide]
- Effective doses for terminating AF (AF terminated at this dose in 1 dog): 10 µmol/kg
- Effective doses for terminating AF (AF terminated at this dose in 4 dogs): 2.5 µmol/kg
- Effectiveness as a control in terminating vagal AF (control in the present study, compared with earlier reports): comparable to that previously reported
